Data reported in patent US11607424B2, “Carbon-rich micro-particles for protecting bees and overcoming colony collapse disorder” (WASHINGTON STATE UNIVERSITY, priority 2018, dated 2023).

Test system: honey bees
Test: Detoxification effects: caged adult bees chronically exposed orally to 50 ppb Thiamethoxam with or without CMPs
Format: in vivo
Details: 50 ppb TXM, absence of CMPs
Procedure: A total of 70 plastic cages (15 cm×8 cm×10 cm) with a removable cover were used FIGS. 4A and B). Adult honey bees were collected from broods of at least seven colonies and homogenously distributed in all control and experimental cages to eliminate possible colony-level effects on the results. Cages were loaded with 100 bees per cage and then incubated in complete darkness at 30° C. and 70% relative humidity (RH). Bees were fed a sugar solution (50% w/v). The CMPs were administered at a concentration of 1% w/v in the sugar solution and delivered to experimental cages on day 2. Stock solutions of Thiamethoxam (TXM) (3-[(2-Chloro-1,3-thiazol-5-yl)methyl]-5-methyl-N-nitro-1,3,5-oxadiazinan-4-imine) were prepared from analytical grade TMX (Sigma Aldrich 37924-100MG-R) at concentration of 30 mg/L in E-pure water, and maintained at 4° C. The pesticide was administered at a concentration of 50 ppb on day 2. […]
Treatments were arranged in a completely randomized design. […] The mortality rates and feed consumption were recorded daily. Production and morphology of bee feces (frass) were assessed to ensure that CMPs passed through the bees digestive system with no harm. Bee behavior and activity (i.e. number of falls per 30 seconds, inability to climb, etc.) were also assessed. Dispensability of the CMPs in the sugar solutions were also assessed during the experiments. […]

## CN1COCN(Cc2cnc(Cl)s2)C1=N[N+](=O)[O-] [TXM, 3-[(2-Chloro-1,3-thiazol-5-yl)methyl]-5-methyl-N-nitro-1,3,5-oxadiazinan-4-imine]
  bee deaths (daily die-off) on day 2: 2.5%
  bee deaths (daily die-off) on day 5: 21%
